Measured values as given in the NIST ThermoML archive (doi:10.1016/j.tca.2009.10.001).
Numbers after ± are expanded uncertainties.

How the values were obtained:
[1] = xn = mol fraction of the nth substance listed; conditions: 101 kPa, Liquid, x1 = 1; for viscosity: Capillary tube (Ostwald / Ubbelohde) method; for speed of sound: Linear variable-path acoustic interferometer; for mass density: Pycnometric method
[2] = Liquid; for viscosity: Capillary tube (Ostwald / Ubbelohde) method; for speed of sound: Linear variable-path acoustic interferometer; for mass density: Pycnometric method

Compound | viscosity ([1]; 298.15 K) [mPa·s] | speed of sound ([1]; 298.15 K) [m/s] | mass density ([1]; 298.15 K) [kg/m3] | viscosity ([1]; 303.15 K) [mPa·s] | speed of sound ([1]; 303.15 K) [m/s] | mass density ([1]; 303.15 K) [kg/m3] | viscosity ([1]; 308.15 K) [mPa·s] | speed of sound ([1]; 308.15 K) [m/s] | mass density ([1]; 308.15 K) [kg/m3] | viscosity ([2]; 298.15 K, 101.33 kPa) [mPa·s] | speed of sound ([2]; 298.15 K, 101.33 kPa) [m/s] | mass density ([2]; 298.15 K, 101.33 kPa) [kg/m3] | viscosity ([2]; 303.15 K, 101.33 kPa) [mPa·s] | speed of sound ([2]; 303.15 K, 101.33 kPa) [m/s] | mass density ([2]; 303.15 K, 101.33 kPa) [kg/m3] | viscosity ([2]; 308.15 K, 101.33 kPa) [mPa·s] | speed of sound ([2]; 308.15 K, 101.33 kPa) [m/s] | mass density ([2]; 308.15 K, 101.33 kPa) [kg/m3] | other results
Cc1ccccc1 [toluene] + CCC#N | 0.5635 ± 0.0056 | 1299.8 ± 1.5 | 860.9 ± 0.3 | 0.5344 ± 0.0055 | 1279.5 ± 1.5 | 856 ± 0.3 | 0.5091 ± 0.0054 | 1260.7 ± 1.5 | 851.6 ± 0.3 | – | – | – | – | – | – | – | – | – | –
Cc1ccccc1 [toluene] | – | – | – | – | – | – | – | – | – | – | – | – | – | – | – | – | – | – | viscosity ([2]; 298.15 K, 101 kPa): 0.5635 ± 0.0056 mPa·s; speed of sound ([2]; 298.15 K, 101 kPa): 1299.8 ± 1.5 m/s; mass density ([2]; 298.15 K, 101 kPa): 860.9 ± 0.3 kg/m3; viscosity ([2]; 303.15 K, 101 kPa): 0.5344 ± 0.0055 mPa·s; speed of sound ([2]; 303.15 K, 101 kPa): 1279.5 ± 1.5 m/s; mass density ([2]; 303.15 K, 101 kPa): 856 ± 0.3 kg/m3; viscosity ([2]; 308.15 K, 101 kPa): 0.5091 ± 0.0054 mPa·s; speed of sound ([2]; 308.15 K, 101 kPa): 1260.7 ± 1.5 m/s; mass density ([2]; 308.15 K, 101 kPa): 851.6 ± 0.3 kg/m3
CCCC#N [butanenitrile] | – | – | – | – | – | – | – | – | – | 0.5463 ± 0.0061 | 1271.4 ± 1.8 | 784.7 ± 0.3 | 0.5255 ± 0.006 | 1252.2 ± 1.8 | 780.3 ± 0.4 | 0.5049 ± 0.0059 | 1233.9 ± 1.7 | 775.9 ± 0.4 | –
CCC#N [propanenitrile] | – | – | – | – | – | – | – | – | – | 0.4107 ± 0.0055 | 1252.4 ± 1.8 | 775.4 ± 0.3 | 0.3991 ± 0.0054 | 1232.7 ± 1.7 | 769.9 ± 0.3 | 0.3822 ± 0.0053 | 1213.7 ± 1.7 | 765.2 ± 0.4 | –
Cc1ccccc1 [toluene] + CCCC#N | 0.5635 ± 0.0056 | 1299.8 ± 1.5 | 860.9 ± 0.3 | 0.5344 ± 0.0055 | 1279.5 ± 1.5 | 856 ± 0.3 | 0.5091 ± 0.0054 | 1260.7 ± 1.5 | 851.6 ± 0.3 | – | – | – | – | – | – | – | – | – | –
CC#N [acetonitrile] | – | – | – | – | – | – | – | – | – | 0.3696 ± 0.0053 | 1271.3 ± 1.8 | 775.3 ± 0.3 | 0.3554 ± 0.0052 | 1251.9 ± 1.8 | 769.9 ± 0.3 | 0.3414 ± 0.0052 | 1231.7 ± 1.7 | 764.7 ± 0.4 | –
Cc1ccccc1 [toluene] + CC#N | 0.5635 ± 0.0056 | 1299.8 ± 1.5 | 860.9 ± 0.3 | 0.5344 ± 0.0055 | 1279.5 ± 1.5 | 856 ± 0.3 | 0.5091 ± 0.0054 | 1260.7 ± 1.5 | 851.6 ± 0.3 | – | – | – | – | – | – | – | – | – | –
